Ends that are not written are not given here. Peptide text beside a SMILES is read from it. * marks the point of attachment. Biotin = O=C1N[C@H]2[C@H](CS[C@H]2CCCCC(=O)*)N1
Experiments:
Assay in all cases: G' assay (10 uM PL peptide), results of TABLE 7 and TABLE 12
Type in all cases: binding
[1] = biological target: T1, PDZ protein (GST-PDZ fusion) (Homo sapiens, UniProt Q9NZN5); details: PDZ KIAA0382, PDZ Domain 1
T1 construct: made in house; host or cells: E. coli (DH5alpha, BL21 or JM109)
Summary of the method: (§1)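 Binding classes derive from A450 nm of bound biotin-tagged PL peptide. A score of 5 needs A450 above 4 in more than two repeats.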

[2] = biological target: T2, PDZ protein (GST-PDZ fusion) (Homo sapiens, UniProt Q12959)
T2 construct: made in house; host or cells: E. coli (DH5alpha, BL21 or JM109)
Summary of the method: as §1

[3] = biological target: T3, PDZ protein (GST-PDZ fusion) (Homo sapiens, UniProt O14907); details: PDZ TIP1, PDZ Domain 1
T3 construct: made in house; host or cells: E. coli (DH5alpha, BL21 or JM109)
T3 sequence (O14907 1-124): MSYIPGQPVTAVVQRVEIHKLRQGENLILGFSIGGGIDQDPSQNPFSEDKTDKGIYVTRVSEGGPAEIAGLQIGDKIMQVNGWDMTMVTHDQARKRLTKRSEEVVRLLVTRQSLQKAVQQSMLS
Summary of the method: as §1

[4] = biological target: T4, PDZ protein (GST-PDZ fusion) (Homo sapiens, UniProt P57105); details: PDZ Outer Membrane, PDZ Domain 1
T4 construct: made in house; host or cells: E. coli (DH5alpha, BL21 or JM109)
T4 sequence (P57105 1-145): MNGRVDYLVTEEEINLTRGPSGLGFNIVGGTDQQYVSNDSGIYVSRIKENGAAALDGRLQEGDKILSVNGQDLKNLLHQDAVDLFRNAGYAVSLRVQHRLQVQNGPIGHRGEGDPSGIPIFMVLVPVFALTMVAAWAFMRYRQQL
Summary of the method: as §1

[5] = biological target: T5, PDZ protein (GST-PDZ fusion) (Homo sapiens, UniProt Q9P202); details: PDZ KIAA1526, PDZ Domain 1
T5 construct: made in house; host or cells: E. coli (DH5alpha, BL21 or JM109)
T5 sequence (Q9P202 1-907): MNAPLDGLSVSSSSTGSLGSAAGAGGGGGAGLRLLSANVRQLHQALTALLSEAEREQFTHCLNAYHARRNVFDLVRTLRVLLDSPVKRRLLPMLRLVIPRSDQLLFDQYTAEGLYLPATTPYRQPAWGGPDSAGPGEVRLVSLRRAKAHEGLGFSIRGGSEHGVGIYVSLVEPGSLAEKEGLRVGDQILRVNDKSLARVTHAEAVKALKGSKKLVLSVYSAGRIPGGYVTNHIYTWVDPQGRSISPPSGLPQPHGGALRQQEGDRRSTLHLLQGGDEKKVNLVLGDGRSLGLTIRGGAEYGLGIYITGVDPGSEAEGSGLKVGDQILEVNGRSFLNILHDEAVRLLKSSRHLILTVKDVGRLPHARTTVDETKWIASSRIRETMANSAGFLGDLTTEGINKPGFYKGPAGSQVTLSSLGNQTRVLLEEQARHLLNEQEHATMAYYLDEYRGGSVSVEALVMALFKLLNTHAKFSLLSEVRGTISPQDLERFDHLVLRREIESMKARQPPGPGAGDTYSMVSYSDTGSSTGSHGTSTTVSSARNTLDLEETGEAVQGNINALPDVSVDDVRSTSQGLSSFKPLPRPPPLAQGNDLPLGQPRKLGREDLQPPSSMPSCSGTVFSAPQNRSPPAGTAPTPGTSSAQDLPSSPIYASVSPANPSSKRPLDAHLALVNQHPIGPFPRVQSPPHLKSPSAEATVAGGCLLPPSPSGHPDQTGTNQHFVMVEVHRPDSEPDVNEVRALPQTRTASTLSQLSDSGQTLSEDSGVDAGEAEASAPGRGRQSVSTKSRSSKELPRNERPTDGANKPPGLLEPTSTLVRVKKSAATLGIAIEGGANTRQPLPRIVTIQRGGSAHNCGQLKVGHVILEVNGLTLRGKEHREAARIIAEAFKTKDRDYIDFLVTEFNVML
Summary of the method: as §1

[6] = biological target: T6, PDZ protein (GST-PDZ fusion) (Homo sapiens, UniProt Q13796); details: PDZ hAPXL, PDZ Domain 1
T6 construct: made in house; host or cells: E. coli (DH5alpha, BL21 or JM109)
Summary of the method: as §1

[7] = biological target: T7, PDZ protein (GST-PDZ fusion) (Homo sapiens, UniProt Q15700)
T7 construct: made in house; host or cells: E. coli (DH5alpha, BL21 or JM109)
Summary of the method: as §1

[8] = biological target: T8, PDZ protein (GST-PDZ fusion) (Homo sapiens, UniProt O15018)
T8 construct: made in house; host or cells: E. coli (DH5alpha, BL21 or JM109)
Summary of the method: as §1

T7 sequence (Q15700 whole entry, the tested form may be a part): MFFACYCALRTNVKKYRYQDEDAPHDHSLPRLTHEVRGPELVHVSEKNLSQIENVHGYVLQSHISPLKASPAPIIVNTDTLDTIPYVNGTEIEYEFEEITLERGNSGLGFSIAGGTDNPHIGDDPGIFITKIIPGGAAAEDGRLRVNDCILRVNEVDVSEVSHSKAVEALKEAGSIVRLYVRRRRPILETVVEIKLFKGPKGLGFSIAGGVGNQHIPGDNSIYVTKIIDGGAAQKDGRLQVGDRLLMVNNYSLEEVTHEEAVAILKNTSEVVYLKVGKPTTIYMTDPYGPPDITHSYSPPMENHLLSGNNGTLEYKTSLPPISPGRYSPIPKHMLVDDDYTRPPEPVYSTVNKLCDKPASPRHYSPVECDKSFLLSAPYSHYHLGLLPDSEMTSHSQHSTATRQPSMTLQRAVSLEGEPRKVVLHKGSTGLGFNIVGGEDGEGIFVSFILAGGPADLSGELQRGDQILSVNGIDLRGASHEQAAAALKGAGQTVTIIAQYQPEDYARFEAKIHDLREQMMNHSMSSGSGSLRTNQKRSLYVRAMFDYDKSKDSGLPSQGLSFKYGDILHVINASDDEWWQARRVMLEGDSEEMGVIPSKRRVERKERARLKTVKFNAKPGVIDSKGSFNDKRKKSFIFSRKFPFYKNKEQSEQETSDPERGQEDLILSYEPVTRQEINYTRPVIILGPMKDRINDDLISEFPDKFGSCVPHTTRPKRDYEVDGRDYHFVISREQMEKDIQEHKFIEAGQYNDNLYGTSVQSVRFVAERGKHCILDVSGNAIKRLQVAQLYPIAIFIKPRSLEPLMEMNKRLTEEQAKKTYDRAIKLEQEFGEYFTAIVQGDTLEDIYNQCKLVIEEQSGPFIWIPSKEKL
T2 sequence (Q12959 whole entry, the tested form may be a part): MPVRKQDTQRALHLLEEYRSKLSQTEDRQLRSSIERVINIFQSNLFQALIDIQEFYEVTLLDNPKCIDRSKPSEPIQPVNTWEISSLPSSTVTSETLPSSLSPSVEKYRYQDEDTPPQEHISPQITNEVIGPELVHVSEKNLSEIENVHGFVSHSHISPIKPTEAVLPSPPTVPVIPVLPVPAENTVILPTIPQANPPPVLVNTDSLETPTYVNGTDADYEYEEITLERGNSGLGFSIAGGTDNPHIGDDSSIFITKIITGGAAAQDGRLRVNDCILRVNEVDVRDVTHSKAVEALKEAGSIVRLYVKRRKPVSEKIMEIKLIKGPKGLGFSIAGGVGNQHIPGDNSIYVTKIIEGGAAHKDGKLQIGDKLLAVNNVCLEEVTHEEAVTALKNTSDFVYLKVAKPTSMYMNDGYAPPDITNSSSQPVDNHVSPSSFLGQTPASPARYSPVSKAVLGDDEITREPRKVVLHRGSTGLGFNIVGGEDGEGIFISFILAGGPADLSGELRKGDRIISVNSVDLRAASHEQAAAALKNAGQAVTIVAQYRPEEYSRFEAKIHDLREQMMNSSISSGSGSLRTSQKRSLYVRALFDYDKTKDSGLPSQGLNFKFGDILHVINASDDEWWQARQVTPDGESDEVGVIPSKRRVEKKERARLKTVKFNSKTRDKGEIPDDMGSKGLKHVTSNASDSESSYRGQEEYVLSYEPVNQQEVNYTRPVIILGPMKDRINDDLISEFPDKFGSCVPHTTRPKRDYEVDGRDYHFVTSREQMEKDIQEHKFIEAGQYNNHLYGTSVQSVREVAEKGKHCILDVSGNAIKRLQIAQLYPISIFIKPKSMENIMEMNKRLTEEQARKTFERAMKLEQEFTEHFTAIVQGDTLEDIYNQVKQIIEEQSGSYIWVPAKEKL
T1 sequence (Q9NZN5 whole entry, the tested form may be a part): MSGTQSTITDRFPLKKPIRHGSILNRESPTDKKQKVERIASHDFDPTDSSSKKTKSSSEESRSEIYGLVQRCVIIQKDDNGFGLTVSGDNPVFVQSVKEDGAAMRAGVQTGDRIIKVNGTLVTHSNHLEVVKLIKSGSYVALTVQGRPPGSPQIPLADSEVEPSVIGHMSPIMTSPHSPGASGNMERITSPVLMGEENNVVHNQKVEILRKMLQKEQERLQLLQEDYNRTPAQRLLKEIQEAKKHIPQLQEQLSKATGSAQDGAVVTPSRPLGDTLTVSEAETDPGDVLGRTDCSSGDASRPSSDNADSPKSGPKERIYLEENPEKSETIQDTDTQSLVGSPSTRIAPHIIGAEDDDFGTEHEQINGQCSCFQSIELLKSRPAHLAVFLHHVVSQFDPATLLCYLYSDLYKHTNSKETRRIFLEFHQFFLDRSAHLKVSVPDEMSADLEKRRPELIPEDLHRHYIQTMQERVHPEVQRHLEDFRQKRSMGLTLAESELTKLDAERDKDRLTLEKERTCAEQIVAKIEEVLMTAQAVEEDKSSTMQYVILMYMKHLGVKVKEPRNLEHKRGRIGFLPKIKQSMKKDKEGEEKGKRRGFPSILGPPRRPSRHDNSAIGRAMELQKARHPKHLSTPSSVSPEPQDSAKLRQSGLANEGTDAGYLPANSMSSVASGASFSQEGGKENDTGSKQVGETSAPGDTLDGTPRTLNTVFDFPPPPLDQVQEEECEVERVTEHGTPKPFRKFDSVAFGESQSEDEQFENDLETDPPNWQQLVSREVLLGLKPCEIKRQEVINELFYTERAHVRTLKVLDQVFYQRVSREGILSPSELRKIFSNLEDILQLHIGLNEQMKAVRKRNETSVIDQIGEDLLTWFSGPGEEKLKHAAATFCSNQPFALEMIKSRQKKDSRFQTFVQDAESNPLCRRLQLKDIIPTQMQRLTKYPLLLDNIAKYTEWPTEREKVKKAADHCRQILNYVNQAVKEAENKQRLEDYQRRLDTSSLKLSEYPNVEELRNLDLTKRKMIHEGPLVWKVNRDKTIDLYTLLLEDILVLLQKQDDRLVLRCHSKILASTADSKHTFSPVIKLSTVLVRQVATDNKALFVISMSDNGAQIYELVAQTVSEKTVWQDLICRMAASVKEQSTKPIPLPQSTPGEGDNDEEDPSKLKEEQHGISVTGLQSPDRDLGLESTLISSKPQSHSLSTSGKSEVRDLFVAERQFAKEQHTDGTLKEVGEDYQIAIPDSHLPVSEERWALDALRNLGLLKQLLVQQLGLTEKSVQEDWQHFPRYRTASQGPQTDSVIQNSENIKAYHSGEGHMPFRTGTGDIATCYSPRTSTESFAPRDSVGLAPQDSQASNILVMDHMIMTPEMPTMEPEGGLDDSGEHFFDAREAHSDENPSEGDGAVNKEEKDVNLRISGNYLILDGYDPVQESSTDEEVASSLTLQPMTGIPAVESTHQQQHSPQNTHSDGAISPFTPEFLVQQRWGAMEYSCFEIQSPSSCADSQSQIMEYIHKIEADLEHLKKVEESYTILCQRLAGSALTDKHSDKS
T6 sequence (Q13796 whole entry, the tested form may be a part): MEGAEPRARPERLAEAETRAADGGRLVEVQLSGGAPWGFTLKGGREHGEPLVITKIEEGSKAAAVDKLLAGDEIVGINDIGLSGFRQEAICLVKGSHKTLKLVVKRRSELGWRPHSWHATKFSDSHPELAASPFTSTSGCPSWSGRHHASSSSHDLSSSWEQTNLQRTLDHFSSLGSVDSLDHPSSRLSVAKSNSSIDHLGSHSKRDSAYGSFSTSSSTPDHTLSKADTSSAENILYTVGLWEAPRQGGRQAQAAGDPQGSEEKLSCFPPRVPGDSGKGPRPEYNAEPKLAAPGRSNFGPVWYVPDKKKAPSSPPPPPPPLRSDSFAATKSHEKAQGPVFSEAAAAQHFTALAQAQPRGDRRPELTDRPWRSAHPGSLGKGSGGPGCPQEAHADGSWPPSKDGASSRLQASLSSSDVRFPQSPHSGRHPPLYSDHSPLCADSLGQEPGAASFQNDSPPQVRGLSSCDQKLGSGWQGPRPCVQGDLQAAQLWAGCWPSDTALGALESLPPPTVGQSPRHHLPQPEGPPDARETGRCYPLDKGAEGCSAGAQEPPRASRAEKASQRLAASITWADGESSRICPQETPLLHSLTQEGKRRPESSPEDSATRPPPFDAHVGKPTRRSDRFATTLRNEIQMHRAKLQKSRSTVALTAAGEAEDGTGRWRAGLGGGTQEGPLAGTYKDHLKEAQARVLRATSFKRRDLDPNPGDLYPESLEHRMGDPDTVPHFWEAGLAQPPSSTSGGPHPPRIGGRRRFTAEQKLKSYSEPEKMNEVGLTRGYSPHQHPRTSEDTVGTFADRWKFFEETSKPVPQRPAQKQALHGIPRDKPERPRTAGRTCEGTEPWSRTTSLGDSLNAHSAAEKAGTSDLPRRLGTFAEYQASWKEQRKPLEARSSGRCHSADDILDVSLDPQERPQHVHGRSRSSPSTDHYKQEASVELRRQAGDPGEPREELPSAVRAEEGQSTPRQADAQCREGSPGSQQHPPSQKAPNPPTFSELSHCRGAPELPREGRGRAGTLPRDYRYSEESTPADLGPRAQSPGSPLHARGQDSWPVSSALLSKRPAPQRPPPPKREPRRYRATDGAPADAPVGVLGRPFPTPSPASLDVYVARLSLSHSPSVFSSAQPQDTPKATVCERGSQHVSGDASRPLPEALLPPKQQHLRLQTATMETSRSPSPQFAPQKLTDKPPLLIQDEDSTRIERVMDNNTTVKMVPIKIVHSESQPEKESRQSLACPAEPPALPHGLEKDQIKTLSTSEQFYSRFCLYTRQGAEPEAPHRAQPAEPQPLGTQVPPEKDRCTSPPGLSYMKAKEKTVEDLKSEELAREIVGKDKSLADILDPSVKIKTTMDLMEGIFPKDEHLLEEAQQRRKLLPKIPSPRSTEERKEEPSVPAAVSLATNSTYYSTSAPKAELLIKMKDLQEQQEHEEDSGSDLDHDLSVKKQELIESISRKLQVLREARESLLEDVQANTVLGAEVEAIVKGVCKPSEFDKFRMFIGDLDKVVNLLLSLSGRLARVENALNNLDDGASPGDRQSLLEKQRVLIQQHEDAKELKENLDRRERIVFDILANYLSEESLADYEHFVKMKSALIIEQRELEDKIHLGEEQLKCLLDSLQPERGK

| Classification [1] | Compound | Classification [3] | Classification [4] | Classification [5] | Classification [6] | Classification ([8]; PDZ AIPC, PDZ Domain 1) | other results |
| --- | --- | --- | --- | --- | --- | --- | --- |
| 1 (A450 nm 0-1) | QATSRNGHSARQHVVADTEL (Biotin-QATSRNGHSARQHVVADTEL) [CD34] | – | – | – | – | – | – |
| 1 (A450 nm 0-1) | APC—adenomatous polyposis coli protein (ESSGTQSPKRHSGSYLVTSV) | 3 (A450 nm 2-3) | 2 (A450 nm 1-2) | – | – | – | Classification ([2]; PDZ DLG1, PDZ Domain 1, 2): 5 (A450 nm of 4 more than 2× repeated) |
| – | CC(C)C[C@H](NC(=O)[C@H](C)NC(=O)[C@@H](NC(=O)[C@H](CCC(=O)O)NC(=O)[C@H](CCCNC(=N)N)NC(=O)[C@H](CCCNC(=N)N)NC(=O)CNC(=O)[C@H](CCC(N)=O)NC(=O)[C@H](CC(C)C)NC(=O)[C@H](CCCNC(=N)N)NC(=O)CNC(=O)CNC(=O)[C@H](CCCNC(=N)N)NC(=O)[C@H](C)NC(=O)[C@H](CO)NC(=O)[C@H](CCCNC(=N)N)NC(=O)CNC(=O)CNC(=O)[C@H](C)NC(=O)[C@H](C)NC(=O)CCCC[C@@H]1SC[C@@H]2NC(=O)N[C@@H]21)[C@@H](C)O)C(=O)O [HPV E6 33 (modified)] (Biotin-AAGGRSARGGRLQGRRETAL-OH; C-terminus assumed) | 5 (A450 nm of 4 more than 2× repeated) | 5 (A450 nm of 4 more than 2× repeated) | 1 (A450 nm 0-1) | 3 (A450 nm 2-3) | 1 (A450 nm 0-1) | Classification ([2]; PDZ DLG1, PDZ Domain 1): 3 (A450 nm 2-3); Classification ([2]; PDZ DLG1, PDZ Domain 2): 5 (A450 nm of 4 more than 2× repeated); Classification ([7]; PDZ DLG2, PDZ Domain 1): 1 (A450 nm 0-1); Classification ([7]; PDZ DLG2, PDZ Domain 2): 3 (A450 nm 2-3) |
| 1 (A450 nm 0-1) | CC[C@H](C)[C@H](NC(=O)[C@H](CO)NC(=O)[C@H](CCC(=O)O)NC(=O)[C@H](Cc1ccc(O)cc1)NC(=O)[C@H](CC(=O)O)NC(=O)[C@H](CC(N)=O)NC(=O)[C@H](CCC(=O)O)NC(=O)[C@H](CCCCN)NC(=O)CCCC[C@@H]1SC[C@@H]2NC(=O)N[C@@H]21)C(=O)N[C@@H](CO)C(=O)N[C@@H](CC(=O)O)C(=O)N[C@@H](CC(C)C)C(=O)N[C@@H](CCC(N)=O)C(=O)N[C@@H](CCC(N)=O)C(=O)NCC(=O)N[C@@H](CCCNC(=N)N)C(=O)N[C@@H](CC(=O)O)C(=O)N[C@H](C(=O)N[C@H](C(=O)N[C@@H](CCCNC(=N)N)C(=O)N[C@@H](CC(C)C)C(=O)O)[C@@H](C)O)[C@@H](C)CC [PAG] (Biotin-KENDYESISDLQQGRDITRL-OH; C-terminus assumed) | – | 2 (A450 nm 1-2) | – | 2 (A450 nm 1-2) | – | – |
| 1 (A450 nm 0-1) | CC[C@H](C)[C@H](NC(=O)[C@H](Cc1ccc(O)cc1)NC(=O)[C@@H](NC(=O)[C@@H]1CCCN1C(=O)[C@H](CCC(N)=O)NC(=O)[C@H](CCC(=O)O)NC(=O)[C@H](CCC(N)=O)NC(=O)[C@H](C)NC(=O)[C@@H](NC(=O)[C@H](CC(C)C)NC(=O)[C@H](CC(C)C)NC(=O)[C@H](CCCNC(=N)N)NC(=O)[C@H](Cc1ccc(O)cc1)NC(=O)[C@H](CCSC)NC(=O)[C@H](C)NC(=O)[C@H](C)NC(=O)[C@@H]1CCCN1C(=O)[C@H](CCSC)NC(=O)[C@@H](NC(=O)[C@H](CCCCN)NC(=O)CCCC[C@@H]1SC[C@@H]2NC(=O)N[C@@H]21)[C@@H](C)O)[C@@H](C)O)C(C)C)C(=O)O [MINT-1] (Biotin-KTMPAAMYRLLTAQEQPVYI-OH; C-terminus assumed) | – | – | – | – | 1 (A450 nm 0-1) | Classification ([8]; PDZ KIAA0300, PDZ Domain 1): 4 (A450 nm 3-4) |
| – | CC[C@H](C)[C@H](NC(=O)[C@H](CCCCN)NC(=O)[C@@H](NC(=O)[C@H](CO)NC(=O)[C@@H]1CCCN1C(=O)[C@H](Cc1ccccc1)NC(=O)[C@@H](NC(=O)[C@@H](NC(=O)[C@H](CCCNC(=N)N)NC(=O)[C@H](CCC(=O)O)NC(=O)[C@H](CC(C)C)NC(=O)[C@H](CC(C)C)NC(=O)[C@H](CC(C)C)NC(=O)[C@@H](NC(=O)CNC(=O)[C@@H](NC(=O)CCCC[C@@H]1SC[C@@H]2NC(=O)N[C@@H]21)C(C)C)[C@@H](C)O)C(C)C)[C@@H](C)CC)C(C)C)C(=O)N[C@@H](C)C(=O)N[C@H](C(=O)N[C@@H](CC(C)C)C(=O)N[C@H](C(=O)O)C(C)C)[C@@H](C)O [Adenovirus E4 Type9] | – | – | – | – | – | Classification ([2]; PDZ DLG1, PDZ Domain 1, 2, PL peptide 10 uM): 5 (A450 nm of 4 more than 2× repeated); Classification ([2]; PDZ DLG1, PDZ Domain 1, Protein Optimal Conc 0.5): 4 (A450 nm 3-4); Classification ([2]; PDZ DLG1, PDZ Domain 2, Protein Optimal Conc 0.3): 5 (A450 nm of 4 more than 2× repeated); Classification ([1]; PL peptide 10 uM): 1 (A450 nm 0-1); Classification ([7]; PDZ DLG2, PDZ Domain 2, Protein Optimal Conc 0.5): 5 (A450 nm of 4 more than 2× repeated); Classification ([8]; PDZ KIAA0300, PDZ Domain 1, PL peptide 10 uM): 1 (A450 nm 0-1); Classification ([4]; Protein Optimal Conc 5): 5 (A450 nm of 4 more than 2× repeated) |
| 1 (A450 nm 0-1) | LASKSAEEGKQIPDSLSTDL (Biotin-LASKSAEEGKQIPDSLSTDL) [Dock2] | – | – | – | 2 (A450 nm 1-2) | – | – |
| – | CC(C)C[C@H](NC(=O)[C@H](C)NC(=O)[C@H](CO)NC(=O)CNC(=O)[C@@H](NC(=O)CCCC[C@@H]1SC[C@@H]2NC(=O)N[C@@H]21)[C@@H](C)O)C(=O)N[C@@H](CCC(N)=O)C(=O)N[C@@H](C)C(=O)N[C@@H](Cc1c[nH]c2ccccc12)C(=O)N[C@@H](CCCNC(=N)N)C(=O)N[C@@H](Cc1c[nH]cn1)C(=O)N[C@H](C(=O)N[C@@H](CO)C(=O)N[C@@H](CCCNC(=N)N)C(=O)N[C@@H](CCC(N)=O)C(=O)N[C@@H](C)C(=O)N[C@H](C(=O)N[C@@H](CCC(=O)O)C(=O)N[C@@H](CO)C(=O)N[C@H](C(=O)N[C@H](C(=O)O)C(C)C)[C@@H](C)O)[C@@H](C)O)[C@@H](C)O [HPV E6 #66 (modified)] (Biotin-TGSALQAWRHTSRQATESTV-OH; C-terminus assumed) | 5 (A450 nm of 4 more than 2× repeated) | 5 (A450 nm of 4 more than 2× repeated) | 1 (A450 nm 0-1) | 1 (A450 nm 0-1) | 1 (A450 nm 0-1) | Classification ([2]; PDZ DLG1, PDZ Domain 1): 4 (A450 nm 3-4); Classification ([2]; PDZ DLG1, PDZ Domain 1, 2): 5 (A450 nm of 4 more than 2× repeated); Classification ([2]; PDZ DLG1, PDZ Domain 2): 5 (A450 nm of 4 more than 2× repeated); Classification ([7]; PDZ DLG2, PDZ Domain 1): 1 (A450 nm 0-1); Classification ([7]; PDZ DLG2, PDZ Domain 2): 5 (A450 nm of 4 more than 2× repeated) |
| 1 (A450 nm 0-1) | KTMPAAMFRLLTGQETPLYI (Biotin-KTMPAAMFRLLTGQETPLYI) [MINT-2] | – | – | – | – | 1 (A450 nm 0-1) | Classification ([8]; PDZ KIAA0300, PDZ Domain 1): 3 (A450 nm 2-3) |

| Compound | Classification [1] | Classification [3] | Classification [4] | Classification [5] | Classification [6] | Classification ([8]; PDZ AIPC, PDZ Domain 1) | other results |
| --- | --- | --- | --- | --- | --- | --- | --- |
| LNETTETQRTLLNGDLQTSI (Biotin-LNETTETQRTLLNGDLQTSI) [SSTR2 (somatostatin recepor 2)] | 1 (A450 nm 0-1) | – | – | 1 (A450 nm 0-1) | – | – | – |
